The source of these data is patent US20240376148A1, “MEDICAMENT FOR INHIBITING DIETARY OBESITY AND POLYPEPTIDE USED THEREFOR” (INSTITUTE OF ZOOLOGY, CHINESE ACADEMY OF SCIENCES, priority 2022, published 2024).

The conditions of experiment [1]: cited from earlier work.
Experiment [2] can be described thus: SPF mice feeding experiment (high-fat diet). The class given is in vivo, C57/B16J mice. As to conditions: for weekly feed intake vs control HFD group: after 3-4 weeks; for body weight decrease compared with the HFD group: intragastric 0.75 mg-3 mg/Kg once/day, after 8 weeks; for subcutaneous and visceral fat weight (inguinal subcutaneous, epididymis, perirenal) vs HFD group: 8 weeks. How it is done:
C57/B16J mice were used in the SPF mice experiment. At the beginning of the experiment, C57/B16J mice were 4 weeks old, and each weighed 15±1 g. They were raised in a room with suitable temperature and humidity control, and the light/dark cycle was 12 hours, free diet and drinking water, and fed with standard laboratory feed (also known as growth and reproduction feed, item number SPFSLFZ003, product of SPF (Beijing) Experimental Animal Technology Co., Ltd.). After one week of adaptation, they were randomly assigned to a cage, 4-6 mice per cage.
A total of 12 treatments were set up, each with 2 cages of C57/B16J mice, and each treatment was subjected to different feeding treatments, specifically as follows:
NC group (i.e. normal diet group): fed with standard laboratory feed (also known as growth and reproduction feed, SPFSLFZ003), free diet and drinking water, each intragastrically administrated with 0.2 ml solvent daily for 8 weeks.
HFD group (i.e. high-fat diet group): fed with high-fat diet, the high-fat diet used was rodent feed (containing 60% fat, D12492, formula reference Le Roy, T., et al. Dysosmobacter welbionis is a newly isolated human commensal bacterium preventing diet-induced obesity and metabolic disorders in mice. Gut (2021).), free diet and drinking water, each intragastrically administrated with 0.2 ml solvent daily for 8 weeks.
(§1) D1 group (i.e. high-fat diet+D1 intragastric administration group): fed with high-fat diet, free diet and drinking water. Intragastrically administrated with synthetic D1, 0.75 mg-3 mg/Kg body weight, 0.2 ml, once/day for 8 weeks.
(§2) D2 group (i.e. high-fat diet+D2 intragastric administration group): fed with high-fat diet, free diet and drinking water. Intragastrically administrated with synthetic D2, 0.75 mg-3 mg/Kg body weight, 0.2 ml, once/day for 8 weeks.
D3 group (i.e. high-fat diet+D3 intragastric administration group): fed with high-fat diet, free diet and drinking water. Intragastrically administrated with synthetic D3, 0.75 mg-3 mg/Kg body weight, 0.2 ml, once/day for 8 weeks.
D4 group (i.e. high-fat diet+D4 intragastric administration group): fed with high-fat diet, free diet and drinking water. Intragastrically administrated with synthetic D4, 0.75 mg-3 mg/Kg body weight, 0.2 ml, once/day for 8 weeks.
D5 group (i.e. high-fat diet+D5 intragastric administration group): fed with high-fat diet, free diet and drinking water. Intragastrically administrated with synthetic D5, 0.75 mg-3 mg/Kg body weight, 0.2 ml, once/day for 8 weeks.
D6 group (i.e. high-fat diet+D6 intragastric administration group): fed with high-fat diet, free diet and drinking water. Intragastrically administrated with synthetic D6, 0.75 mg-3 mg/Kg body weight, 0.2 ml, once/day for 8 weeks.
D7 group (i.e. high-fat diet+D7 intragastric administration group): fed with high-fat diet, free diet and drinking water. Intragastrically administrated with synthetic D7, 0.75 mg-3 mg/Kg body weight, 0.2 ml, once/day for 8 weeks.
D8 group (i.e. high-fat diet+D8 intragastric administration group): fed with high-fat diet, free diet and drinking water. Intragastrically administrated with synthetic D8, 0.75 mg-3 mg/Kg body weight, 0.2 ml, once/day for 8 weeks.
D9 group (i.e. high-fat diet+D9 intragastric administration group): fed with high-fat diet, free diet and drinking water. Intragastrically administrated with synthetic D9, 0.75 mg-3 mg/Kg body weight, 0.2 ml, once/day for 8 weeks.
D10 group (i.e. high-fat diet+D10 intragastric administration group): fed with high-fat diet, free diet and drinking water. Intragastrically administrated with synthetic D10, 0.75 mg-3 mg/Kg body weight, 0.2 ml, once/day for 8 weeks.
The feed intake was tracked every week. After the experiment, the mice were weighed and photographs were taken to compare the body size of the mice. After that, the mice were killed by cervical dislocation. […]

Experiment [3] can be described thus: Short-term feed intake experiment of SPF mice. As to conditions: after 8 weeks of treatment, starved one day then fed. The class given is in vivo, C57/B16J mice. How it is done:
A total of 2 treatments were set up, each with one cage of C57/B16J mice, and the high-fat diet used was rodent feed (containing 60 kcal % fat, D12492), and each treatment was subjected to different feeding treatments, specifically as follows:
HFD group (i.e. high-fat diet group): fed with high-fat diet.
as §1, §2
D3 group (i.e. high-fat diet+D3 intragastric administration group): fed with high-fat diet, free diet and drinking water. […]
According to the above treatment, it was carried out for 8 weeks, and then within 1 week, the mice were starved for one day and then given feed, and the feed intake of the animals in the following day was recorded. That is, food weights were recorded every other day (4 separate measurements) and the average daily intake was determined for each 2-day period and calculated for each individual during the one-week measurement period. […]

For experiment [4], the system named is A. muciniphila. The experiment can be described thus: qPCR of relative abundance of A. muciniphila in intestinal flora of SPF mice. The note with it: p<0.05. The class given is in vivo. The method, then:
In order to verify the changes in the relative abundance of A.muciniphila in the intestinal flora of mice fed with other HD, qPCR experiments were performed on the changes of intestinal flora in mice. Faecal bacterial DNA was extracted from the faeces of mice in the NC, HFD, D1, D2, D3, D5, D7, D8, D9 and D10 groups collected in the pre-SPF mice experiments and then the relative abundance of A. muciniphila was determined using qPCR.

Setting [5] is: Phase 3, overweight or obese adults, subcutaneous 2.4 mg/week.

In the case of `C[C@H]1CNCCc2ccc(Cl)cc21` [Lorcaserin], the “additional weight lost per year” value in experiment [1] (obese subjects during the medication period) is 3.2 to 3.6 kg.

Consider `CCCCCCCCCCC[C@@H](C[C@@H]1OC(=O)[C@H]1CCCCCC)OC(=O)[C@H](CC(C)C)NC=O` [orlistat, Orlistat], for which the body weight lost in experiment [1] (obese patients, within 12 months) was 2.9 to 3.4 kg.

ATCYRRTGR [D4]: in experiment [2], the “weekly feed intake vs control HFD group” value was “no significant effect” and the “body weight decrease compared with the HFD group” value (from here on “body weight decrease”) was determined as 3.55%. The “short-term feed intake vs HFD group” value in experiment [3] was “no significant effect”.

Regarding ATRYCRTGR [D6], in experiment [2], the “weekly feed intake vs control HFD group” value was “no significant effect” and the “body weight decrease” value turned out to be 3.78%. Moreover, in experiment [3], the “short-term feed intake vs HFD group” value is “no significant effect”.

With GTCYCRTGR [D7], in experiment [2], the “subcutaneous and visceral fat weight (inguinal subcutaneous, epididymis, perirenal) vs HFD group” value is recorded as “significantly lower than that of the HFD group”; the “weekly feed intake vs control HFD group” value is “significant difference in feed intake”; the “body weight decrease” value is given as 8.08%. In experiment [4], the “relative abundance of A. muciniphila in the intestinal flora by qPCR” value (shortened to “relative abundance of A. muciniphila”) is “significantly increased”.

Consider GTCYKRTGR [D2], for which, in experiment [2], the “subcutaneous and visceral fat weight (inguinal subcutaneous, epididymis, perirenal) vs HFD group” value is “significantly lower than that of the HFD group”; the “weekly feed intake vs control HFD group” value was “significant difference in feed intake”; the “body weight decrease” value is reported as 9.45%. Also, the “relative abundance of A. muciniphila” value in experiment [4] is listed as “significantly increased”.

As to GTRYCRTGR [D10], in experiment [2], the “subcutaneous and visceral fat weight (inguinal subcutaneous, epididymis, perirenal) vs HFD group” value is recorded as “significantly lower than that of the HFD group”; the “weekly feed intake vs control HFD group” value is on record as “significant difference in feed intake”; the “body weight decrease” value was found to be 11.06%. Further, the “relative abundance of A. muciniphila” value in experiment [4] is on record as “significantly increased”.

As to GTRYKRTGR [D8], in experiment [2], the “subcutaneous and visceral fat weight (inguinal subcutaneous, epididymis, perirenal) vs HFD group” value is on record as “significantly lower than that of the HFD group”; the “weekly feed intake vs control HFD group” value was “significant difference in feed intake”; the “body weight decrease” value is reported as 10.07%. Also, the “relative abundance of A. muciniphila” value in experiment [4] is “significantly increased”.

As for RTCYCRTGR [D9], in experiment [2], the “subcutaneous and visceral fat weight (inguinal subcutaneous, epididymis, perirenal) vs HFD group” value was “significantly lower than that of the HFD group”; the “weekly feed intake vs control HFD group” value is on record as “significant difference in feed intake”; the “body weight decrease” value is reported as 11.09%. The “relative abundance of A. muciniphila” value in experiment [4] is “significantly increased”.

Consider RTCYKRTGR [D5], for which, in experiment [2], the “subcutaneous and visceral fat weight (inguinal subcutaneous, epididymis, perirenal) vs HFD group” value was “significantly lower than that of the HFD group”; the “weekly feed intake vs control HFD group” value was “significant difference in feed intake”; the “body weight decrease” value came to 11.8%. Also, in experiment [4], the “relative abundance of A. muciniphila” value was “significantly increased”.

For RTRYKRTGR [D1], in experiment [2], the “subcutaneous and visceral fat weight (inguinal subcutaneous, epididymis, perirenal) vs HFD group” value is given as “significantly lower than that of the HFD group”; the “weekly feed intake vs control HFD group” value is “significant difference in feed intake”; the “body weight decrease” value is given as 11.62%. Also, the “relative abundance of A. muciniphila” value in experiment [4] is listed as “significantly increased”.

On to semaglutide, for which, in experiment [1] (setting [5]), the average weight lost was 15.3 kg; the “average weight lost, of initial body weight” value is given as 14.9%; the “mean body mass index (BMI) drop” value is recorded as 5.54.
